Reference: patent US10301630B2, “Methods and compositions for unsilencing imprinted genes” (The University of North Carolina at Chapel Hill, priority 2010, dated 2019)

Assays:
paternal Ube3a-YFP mRNA = test: Real-time PCR of Ube3a-YFP transcript in cortical neurons; type: cell-based, mouse; settings: 10 μM for 72 h
Source text: Total mRNA was isolated by guanidinium thiocyanate-phenol-chloroform extraction using the Trizol reagent (Invitrogen Inc.). Total mRNAs from samples were converted into cDNA and subjected to real-time PCR (RT-PCR) analyses to quantify Ube3a-YFP transcript levels using oliognucleotide primers against Ube3a (Forward sequence: [NT] (SEQ ID NO:1); reverse sequence: [NT] (SEQ ID NO:2)) and total transcript reads were normalized to Oaz1 (Forward sequence: [NT] (SEQ ID NO:3); reverse sequence: [NT] (SEQ ID NO:4)).

Ube3a-YFP protein = test: Western blot of Ube3a-YFP protein in cortical neurons; type: cell-based, mouse; settings: 10 μM for 72 h
Method: (§1) Embryonic day 13.5 to 15.5 mice that encode the paternal Ube3a-YFP transgene or Ube3a^m−/p+ mice (i.e., AS model mice) were identified and primary cortical neuronal cultures were obtained and plated in 6 well plates. […] To assess Ube3a-YFP protein levels, 7.5 ug of total protein lysates from Ube3a-YFP neurons were separated by 8% SDS-polyacrylamide gel electrophoresis, proteins were transferred to nitrocellulose membranes and immunoblotting was performed using a rabbit anti-GFP antibody (Novus) and Alexa Fluor 680 goat anti-rabbit IgG (Invitrogen). Ube3a-YFP protein bands were visualized by a LiCOR system and to control for protein loading, Ube3a-YFP protein levels were normalized to actin level detected in each sample. To assess Ube3a protein level, immunoblotting was performed using rabbit anti-Ube3a antibody (Abeam) and Alexa Fluor 680 goat anti-rabbit IgG (Invitrogen).
(§2) E13.5-15.5 primary cortical neurons from Ube3a-YFP, Ube3a-deficient, or wild-type mice were plated in 6-well plates. At DIV7, neurons were treated with drug or 0.1% DMSO for 72 h, and then total protein lysates were obtained by lysis buffer (1% Triton X-100, 5 mM EDTA, 0.15M NaCl, 10 mM Tris-HCl, pH 7.5, phosphatase inhibitor cocktails 1, protease inhibitor cocktail). […] To control for protein loading, UBE3A-YFP or UBE3A protein levels were normalized to actin levels detected in each sample.

cultured neurons [1] = test: Neuron health / cell death in treated cultures; type: cell-based, mouse
cultured neurons [2] = test: Affymetrix GeneChip expression in cultured neurons; type: cell-based
[3] = test system: Ube3a, Ube3a-ATS, Snrpn mRNA; test: Quantitative PCR of Ube3a, Ube3a-ATS and Snrpn in Ube3a m-/p+ neurons; type: cell-based, mouse; settings: 300 nM, cultured neurons from Ube3a m−/p+ mice
Method: First strand cDNA synthesis was performed on 500 ng-2 μg total RNA using Superscript III reverse transcriptase (Invitrogen) primed with random hexamers. qPCR reactions used SYBR green (Invitrogen) and were run on a Rotorgene 3000 (Corbett Research). Standard curves and Ct-values were generated using Rotorgene analysis software version 6.0. Expression of Ube3a, Ube3a-ATS, Ipw and Snrpn were determined after normalization of each cDNA sample to expression levels of the housekeeping genes Rp122 and Actb.

UBE3A protein = test: Western blot of endogenous UBE3A protein in Ube3a m-/p+ cortical neurons; type: cell-based, mouse; settings: 300 nM, 72 h
Method: as §1, §2

[4] = test system: Ube3a-ATS/Snrpn promoter region; test: Bisulfite sequencing of the Ube3a-ATS/Snrpn promoter region; type: cell-based, mouse; settings: 300 nM, 72 h, cortical neurons
Method: Bisulfite conversion was performed on 200 ng genomic DNA using the MethylCode kit (Invitrogen). 1 μL of converted DNA was used as template for PCR. A first round of PCR was performed as described in Peery et al. using the W18 (5′-[…]) (SEQ ID NO:5) and W19 (5′-[…]) (SEQ ID NO:6) or W16 (5′-[…]) (SEQ ID NO:7) and W17 (5′-[…]) (SEQ ID NO:8) primer sets^38. A second semi-nested round of PCR was performed using 1 μL of the primary PCR reaction as template. For semi-nested PCR, the W18 primer was used with the nested W19-inside primer (5′-[…]) (SEQ ID NO:9), or the W16 primer was used with the nested W17-inside primer (5′-[…]) (SEQ ID NO:10). Products were separated on an agarose gel and extracted using the Qiaquick gel extraction kit (Qiagen). Purified DNA was ligated into the pGem-T Easy vector (Promega). Individual clones were amplified and sequenced.

Structure (SMILES) | paternal Ube3a-YFP mRNA level (RT-PCR) (paternal Ube3a-YFP mRNA) | paternal Ube3a-YFP protein level (immunoblot) (Ube3a-YFP protein) | neuron density and health (DAPI counterstain) (cultured neurons [1]; 10 μM for 72 hr) | pyknotic nuclei versus vehicle (cultured neurons [1]; effective concentrations, cultures) | apoptotic pathways by microarray (cultured neurons [2]) | Ube3a mRNA expression [3] | Ube3a-ATS and Snrpn mRNA expression [3] | UBE3A protein level in neurons from Ube3a m−/p+ mice (UBE3A protein) | methylation at the imprinting center [4]
CCc1c2c(nc3ccc(OC(=O)N4CCC(N5CCCCC5)CC4)cc13)-c1cc3c(c(=O)n1C2)COC(=O)[C@]3(O)CC [Irinotecan] | significantly increased the level of paternal Ube3a-YFP mRNA | significantly increases paternal Ube3a-YFP protein levels | Neuron density and health is similar | a similar number of pyknotic nuclei | no evidence for drug-induced increases in apoptotic pathways | – | – | – | –
CC[C@@]1(O)C(=O)OCc2c1cc1n(c2=O)Cc2cc3c(CN(C)C)c(O)ccc3nc2-1 [Topotecan] | – | – | – | – | – | upregulated expression of Ube3a | downregulating expression of Ube3a-ATS and Snrpn | restored UBE3A protein to wild-type levels | did not alter methylation at the imprinting center
